Data on 8 compounds can be found in paper PMC5609913, “Structure based design, synthesis and activity studies of small hybrid molecules as HDAC and G9a dual inhibitors” (Oncotarget, 2017).

Test [1] has as its target T1, Mouse histone methyltransferase G9a (969-1263) (Mus musculus, UniProt Q9Z148).
T1 construct: The 6His-sumo mG9a (969-1263) protein was purified using the following procedure; 6His-sumo (N, cleaved yes); made in house; host or cells: Escherichia coli BL21 (DE3)
T1 sequence (Q9Z148 969-1263): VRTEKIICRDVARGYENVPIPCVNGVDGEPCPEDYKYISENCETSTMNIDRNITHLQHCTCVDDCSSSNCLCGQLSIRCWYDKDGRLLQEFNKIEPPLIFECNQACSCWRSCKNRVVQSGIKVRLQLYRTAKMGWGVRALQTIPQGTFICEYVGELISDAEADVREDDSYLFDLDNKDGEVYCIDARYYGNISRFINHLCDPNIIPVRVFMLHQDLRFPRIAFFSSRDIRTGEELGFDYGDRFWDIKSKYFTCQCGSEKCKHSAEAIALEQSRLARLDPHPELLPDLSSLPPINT
The test can be described thus: MALDI-TOF methylation study of G9a enzymatic activity (H3 peptide, SAM). To be noted: Supplementary Table 1; inhibitor 5 μM, 30 min; average of 3 values. In kind it is biochemical. The method, then:
Figure 3 compounds were synthesized from the commercially available starting material 1. An initial displacement reaction using a primary amine was used to introduce the C4 selective substitution, with the second displacement to introduce the linker at the C2 position following the microwave assisted reaction previously reported. Boc-protected ethylene diamine was treated with compound 2 at 160°C in a microwave for 10 min to yield product 3 with excellent yield. Afterward, the amine 3 was deprotected with TFA/DCM, and the free amine was treated with corresponding monomethyl esters (carbon chain 2-6) in the presence of coupling reagent EDCI and HOBt for about 8 hours to produce mono methyl ester substituted at the C2 position. The ester compounds further treated with hydroxylamine in water to get the corresponding hydroxamic acid derivatives, which were purified using reverse phase flash chromatography to obtain compounds 4-7 and 4a-7a in good yield. Synthesis of compounds in Figure 4 requires the C6 demethoxy core, and this was synthesized according to the reported procedure to yield 10 [45]. […] Compounds with the HDAC pharmacophore at the C4 position (Figure 2B) were synthesized from the starting material 1. […] A parallel synthesis and testing strategy were used in establishing the primary SAR, with the clear rationalization of the structure and activity at each stage we could reduce the synthetic targets. Initially, we evaluated the G9a potential after the introduction of HDAC pharmacophore. A biochemical assay using MALDI-TOF was used to visualize the effects of the synthesized compounds on G9a enzymatic activity, we carried out a biochemical reaction involving target enzyme G9a, methyl donor SAM and substrate H3 peptide at a concentration of 400 nM, 10 μM and 5 μM respectively.
Mouse histone methyltransferase G9a (969-1263) cDNA was amplified from the cDNA of BALB/c mouse thymus, and the fragment was sub-cloned into a vector with a 6His-sumo tag. The mouse G9a (mG9a) was expressed in Escherichia coli BL21 (DE3) by the addition of 1 mM isopropyl-1-thio-D-galactopyranoside (IPTG) and incubated overnight at 16°C.
The in vitro inhibition of G9a by the synthesized compounds were measured by MALDI-TOF mass spectrum (Bruker MALDI TOF/TOF Analyzer). 400 nM purified G9a, 5 μM synthesized histone H3 (1-21) and 10 μM non-radioactive S-adenosyl methionine (Sigma) were added in reaction buffer (50 mM HEPES pH 8.0, 5 μg/ml BSA and 0.1% β-Mercaptoethanol) with or without inhibitors (5 μM). The reaction was incubated at room temperature for 30 min, and stopped by TFA. 1 μl of the sample was mixed with CHCA matrix and m/z peaks were obtained at reflection positive mode. The results of mass spectrum were analyzed using the Bruker flex analysis software, a detailed description of data processing is provided as supplementary information (S3).
[…]
MALDI spectrums were collected using Bruker flex % conversion to product is also C, from this to get the control software and analyzed by flex analysis. After %maximal activity (%MA), C was compared to the % labelling each cluster peaks of H3K9Me0, H3K9Me1 conversion when no inhibitor was used (D). and H3K9Me2 for all of the tested concentrations, area Finally % inhibition was found by subtracting under the cluster (AUC) were extracted by using the same %MA from 100 […]
flex analysis software. % abundance of each peak was Example: % methylation levels and % inhibition calculated by following formula, when used 5 μM compound 14
A = % Abundance of (H3K9Me0) = area of A = 13.09
B = % Abundance of (H3K9Me1) = area of % conversion when no inhibitor was used D = 84.43 H3K9Me1/ (area of H3K9Me0+area of H3K9Me1 + area (average of six measurements) […]

Another test concerns A549 cells. The test can be described thus: Cell anti-proliferation / toxicity assay (CCK-8), A549. To be noted: Homo sapiens, Table 6, 72 h, >100 = not reached at highest tested concentration (100 μM). It is filed as cell-based. On the procedure:
(§1) Cell anti-proliferation assays were performed to determine the toxicity of these inhibitors. […] These compounds were further evaluated against the control cell line HEK293 to test their toxicity with a non-cancerous cell line.
(§2) And then the cells were exposed to the different inhibitors with various concentrations for 72 h. […] EC50s were calculated using GraphPad Prizm statistical package with sigmoidal variable slope dose response curve fit.

Another test has as its system MCF-7 cells. The test can be described thus: Cell anti-proliferation / toxicity assay (CCK-8), MCF-7. It is filed as cell-based. The method, then: as §1, §2
The test system of another test is HEK293 cells. The test can be described thus: Cell anti-proliferation / toxicity assay (CCK-8), HEK293 normal cell line. In kind it is cell-based. The settings on record: Homo sapiens, Table 6, 72 h. The method, then:
as §1, §2

The next test has as its system MDA-MB-231 cells. The test can be described thus: Cell anti-proliferation / toxicity assay (CCK-8), MDA-MB-231. In kind it is cell-based. On the procedure: Initial tests designed around assessing whether a synergistic effect would be observed in real when a combination of G9a inhibitor and HDAC inhibitor used in conjunction.
Cell anti-proliferation assays were performed to determine the toxicity of these inhibitors. Several cell lines (MDA-MB-231, MCF-7 and A549) were incubated and then treated with varying concentrations of the inhibitors for 72 h, respectively. […] These compounds were further evaluated against the control cell line HEK293 to test their toxicity with a non-cancerous cell line.
A549, MDA-MB-231, MCF-7 and HEK293 cells were seeded at 8000-10000 cells (100 μl) in white 96-well plates and pre-incubate the plate for 24 h under standard cell culture conditions, respectively. And then the cells were exposed to the different inhibitors with various concentrations for 72 h. Finally, 10 μl of CCK-8 kit solution was added to each well and incubated for 3-4 hours under standard cell culture conditions, and the 96 well plates were measured the absorbance at 450 nm using Perkin–Elmer Wallac Victor ^3V 1420 multi label plate reader (Perkin–Elmer, Wellesley, USA). EC50s were calculated using GraphPad Prizm statistical package with sigmoidal variable slope dose response curve fit.

Test [2] relates to HDAC. The test can be described thus: Homogeneous cellular histone deacetylase assay, K562. In kind it is cell-based, human. The settings on record: Supplementary Table 2; NA = not active up to highest concentration tested (100 μM); >100 = IC50 not reached at 100 μM; read-out: IC50-HDAC K562. On the procedure:
(§3) The enzymatic activity of HDAC was measured in intact cells using the homogeneous cellular assay method. A cell-permeable peptide Boc-K(Ac)-AMC used as the HDAC substrate, after deacetylation it is cleaved by trypsin to release the fluorescent 7-amino-4-methylcoumarin (AMC) and further quantified.
(§4) The manual assay was developed by Thomas's group. […] After 24 h, 9 μl inhibitors with different concentration were added to the HeLa cells and incubation was continued for 3 h under cell culture conditions. After this treatment period, 10 μl of a 2 mM stock solution of the substrate Boc-K(Ac)-AMC was added into the 96 well plates with Hela cells and inhibitors. […] A549 and K562 cell lines used the same method, respectively. IC50s were calculated using GraphPad Prizm statistical package with sigmoidal variable slope dose response curve fit.

Test [3] has as its system HDAC. The test can be described thus: Homogeneous cellular histone deacetylase assay, A549. The settings on record: Supplementary Table 2; NA = not active up to highest concentration tested (100 μM); >100 = IC50 not reached at 100 μM. It is filed as cell-based, human. The method, then: as §3, §4
In test [4] the test system is HDAC. Kind of test: Homogeneous cellular histone deacetylase assay, Hela. In kind it is cell-based, human. To be noted: Supplementary Table 2; NA = not active up to highest concentration tested (100 μM); >100 = IC50 not reached at 100 μM; read-out: IC50-HDAC Hela. On the procedure: as §3, §4
Where [5] appears, read: Homo sapiens, MDA-MB-231, Table 6, 72 h, CCK-8, mean ± SD of triplicates, read-out: EC50 MDA-MB-231.
Where [6] appears, read: Homo sapiens, MDA-MB-231, read-out: EC50, MDA-MB-231 (combination study).
Setting [7] is: Homo sapiens, MCF7, Supplementary Table 4, 72 h, CCK-8, >100 = not reached at 100 μM, read-out: EC50 MCF-7.
Where [8] appears, read: Homo sapiens, MDA-MB-231, Supplementary Table 4, 72 h, CCK-8, >100 = not reached at 100 μM, read-out: EC50 MDA-MB-231.

Where two headings read alike, the source gives them in different places.

For orientation: inhibition means how much of the control response was suppressed. High values mean a response far below the control, low ones a response near the control. One may read the EC50 as the concentration giving half of the maximal effect. With `COc1cc2nc(N3CCCN(C)CC3)nc(NC3CCN(Cc4ccccc4)CC3)c2cc1OC` [BIX-01294, reference compound], 5 µM produced 77.7 ± 5.73% inhibition in test [1]. Also, the EC50 in the test on A549 cells was 21.7 ± 2.73 µM; in the test on MCF-7 cells (Homo sapiens, MCF7, Table 6, 72 h, CCK-8, mean ± SD of triplicates, read-out: EC50 MCF-7), 8.1 ± 1.99 µM; in the test with MCF-7 cells (Homo sapiens, MCF7, read-out: EC50, MCF-7 (combination study)), 8.1 ± 1.99 µM; in the test with HEK293 cells, 2.05 ± 0.98 µM; in the test on MDA-MB-231 cells (setting [5]), 2.16 ± 0.88 µM; in the test with MDA-MB-231 cells (setting [6]), 2.16 ± 0.88 µM.

`COc1cc2nc(NCCNC(=O)CCCCCC(=O)NO)nc(NC3CCN(C)CC3)c2cc1OC` [Compound 5, N1-(2-((6,7-dimethoxy-4-((1-methylpiperidin-4-yl)amino)quinazolin-2-yl)amino)ethyl)-N7-hydroxyheptanediamide]: in test [1], the inhibition at 5 µM was 65 ± 1.95%. For the same compound, the EC50 in the test with MCF-7 cells (setting [7]) and with MDA-MB-231 cells (setting [8]) was greater than 100 µM throughout.

In the case of `COc1cc2nc(NCCNC(=O)CCCCC(=O)NO)nc(NC3CCN(C)CC3)c2cc1OC` [Compound 6, N1-(2-((6,7-dimethoxy-4-((1-methylpiperidin-4-yl)amino)quinazolin-2-yl)amino)ethyl)-N6-hydroxyadipamide], in test [1], the inhibition at 5 µM is 26.6 ± 11.3%. Also, the EC50 in the test with MCF-7 cells (setting [7]) and with MDA-MB-231 cells (setting [8]) was greater than 100 µM in each case.

Take `COc1cc2nc(NCCNC(=O)CCCCC(=O)NO)nc(NC3CCN(C(C)C)CC3)c2cc1OC` [Compound 6a, N1-hydroxy-N6-(2-((4-((1-isopropylpiperidin-4-yl)amino)-6,7-dimethoxyquinazolin-2-yl)amino)ethyl)adipamide]: at 5 µM the inhibition in test [1] was 50.6 ± 16.5%. Moreover, the EC50 in the test on MCF-7 cells (setting [7]) and in the test on MDA-MB-231 cells (setting [8]) was greater than 100 µM in each case.

One may read the IC50 as the concentration at which inhibition is half-maximal. On to `COc1ccc2c(NCCNC(=O)CCCCCCC(=O)NO)nc(N3CCCN(C)CC3)nc2c1` [Compound 21, N1-hydroxy-N8-(2-((7-methoxy-2-(4-methyl-1,4-diazepan-1-yl)quinazolin-4 yl)amino)ethyl)octanediamide], for which the IC50 in the test with HDAC [2], with HDAC [3] and in the test with HDAC [4] was greater than 100 µM in each case. Also, in test [1], testing at 5 µM gave an inhibition of 22.8 ± 26.7%. Besides, the EC50 in the test with MCF-7 cells (setting [7]) and with MDA-MB-231 cells (setting [8]) was greater than 100 µM each time.

For the compound `COc1cc2c(NC3CCN(C(C)C)CC3)nc(N3CCCN(C)CC3)nc2cc1OCCCCCCC(=O)NO` [Compound 26, N-hydroxy-7-((4-((1-isopropylpiperidin-4-yl)amino)-6-methoxy-2-(4-methyl-1,4-diazepan-1-yl)quinazolin-7-yl)oxy)heptanamide], the results for the EC50 in the test on MCF-7 cells (setting [7]) and in the test on MDA-MB-231 cells (setting [8]) were greater than 100 µM and 31.3 ± 3.3 µM, respectively.

Take `CN1CCCN(c2nc(NC3CCN(Cc4ccccc4)CC3)c3ccc(OCCCCCCCC(=O)NO)cc3n2)CC1` [Compound 30, 8-((4-((1-benzylpiperidin-4-yl)amino)-2-(4-methyl-1,4-diazepan-1-yl)quinazolin-7-yl)oxy)-N-hydroxyoctanamide]: the EC50 in the test with MCF-7 cells (Supplementary Table 4, 72 h, CCK-8, >100 = not reached at 100 μM, read-out: EC50 MCF-7) was greater than 100 µM; with MDA-MB-231 cells (Supplementary Table 4, 72 h, CCK-8, >100 = not reached at 100 μM, read-out: EC50 MDA-MB-231) it was 24 ± 3.64 µM.

For `O=C(CCCCCCC(=O)Nc1ccccc1)NO` [SAHA, reference compound], the EC50 in the test on MDA-MB-231 cells (setting [5]) and in the test on MDA-MB-231 cells (setting [6]) was 2.87 ± 0.84 µM throughout.
